Assay type in all cases: cell-based
Assay [1] has as its system Wnt activity (Sp5-Luc reporter, SW480 colon carcinoma cells). The experiment in a line: Wnt activity screening assay: Sp5-Luc reporter gene in SW480 colon carcinoma cells. The following applies: Homo sapiens, overnight incubation, 10-point curve from 10 μM. The procedure, abridged:
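Wnt-driven firefly luciferase in SW480 colon carcinoma cells reports pathway activity after overnight compound exposure (10 μM top concentration, 3-fold steps). Signal is normalized to DMSO controls.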
In general terms: Reporter assays use an easily measured gene product as a stand-in for the process of interest.

In another assay the test system is IL-6 (THP-1 cells). Description: IL-6 inhibition in LPS-stimulated THP-1 human monocyte cells (HTRF). The following applies: LPS 500 ng/mL; for pEC50: 22 hours, IL6 HTRF. The essentials: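 THP-1 cells, serum-reduced (1% FBS) for 24 h, were preincubated with compound (10-point 1:3 series from 10 μM, 0.1% DMSO) for 2 h, then stimulated with 500 ng/mL LPS for 22 h at 37° C. IL-6 was read by HTRF (665/620 nm ratio) and normalized to DMSO. EC50 from four-parameter fit; % inhibition at 10 μM given if EC50 >10 μM.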
A general note: Time-resolved FRET reads energy transfer from a long-lived donor to a nearby acceptor.

Assay [2] relates to primary human mesenchymal stem cells (hMSCs). The experiment in a line: Induction of chondrogenesis in primary human mesenchymal stem cells (hMSCs), nodule count. The following applies: 144 h, 6 days; for EC50: concentration required to induce 50% levels of chondrogenesis of TGF-β3 control, read-out: Conc (nM) of 50% TGF-β3 activity; for Emax: relative to TGF-β3 (10 ng/mL) positive control, read-out: Max. Activity as % TGF-β3 activity. The protocol:
Representative compounds were screened using primary human mesenchymal stem cells (hMSCs) to determine their ability to induce chondrogenesis (process by which cartilage is developed).
Primary human mesenchymal stem cells (hMSCs) were purchased from Lonza (Walkersville, Md.) and expanded in Mesenchymal Stem Cell Growth Media (Lonza). Cells between passage 3 and 6 were used for the experiments.
Each compound was dissolved in DMSO as a 10 mM stock and used to prepare compound source plates. Serial dilution (1:3, 6-point dose-response curves from 2700 nM to 10 nM) and compound transfer was performed using the ECHO 550 (Labcyte, Sunnyvale, Calif.) into 96-well clear bottom assay plates (Greiner Bio-One) with appropriate DMSO backfill for a final DMSO concentration of 0.03%. hMSCs were plated at 20,000 cells/well in 250 μL/well Incomplete Chondrogenic Induction Medium (Lonza; DMEM, dexamethasone, ascorbate, insulin-transferrin-selenium [ITS supplement], gentamycin-amphotericin [GA-1000], sodium pyruvate, proline and L-glutamine). TGF-β3 (10 ng/mL) was used as a positive control for differentiation while negative control wells were treated with 75 nL DMSO for normalization and calculating EC50 values. Cells were incubated at 37° C. and 5% CO2 for 6 days. To image chondrogenic nodules, the cells were fixed using 4% formaldehyde (Electron Microscopy Sciences), and stained with 2 μg/mL Rhodamine B (Sigma-Aldrich) and 20 μM Nile Red (Sigma-Aldrich) [Johnson K., et. al, A Stem Cell-Based Approach to Cartilage Repair, Science, (2012). 336(6082), 717-721]. The nodules imaged (4 images per well at 4× magnification) by excitation at 531 nm and emission at 625 nm and quantified using the CellInsight CX5 (Thermo Scientific). Number of nodules in each well was normalized to the average of 3 DMSO treated wells on the same plate using Excel (Microsoft Inc.). The normalized averages (fold change over DMSO) of 3 replicate wells for each compound concentration were calculated. Due to solubility limitations of some of the compounds, curve fitting was incomplete leading to inaccurate EC50 determinations.
Using TGF-β3 as a positive control, the concentration of representative compounds required to induce 50% levels of chondrogenesis is reported. In addition, the maximum activity of each compound and the respective dose that each compound reached maximum chondrogenesis activity is reported.

pEC50: −log10 of the molar value.

Regarding `Cc1ccncc1-c1ccc2[nH]nc(-c3cc4c(N5CCN(C)CC5)cccc4[nH]3)c2n1` [Compound 229, 3-(4-(4-Methylpiperazin-1-yl)-1H-indol-2-yl)-5-(4-methylpyridin-3-yl)-1H-pyrazolo[4,3-b]pyridine], the pEC50 (usually the negative decadic logarithm of the EC50, by convention in mol/L) in assay [1] is 5.70. This compound also had a pEC50 with IL-6 (THP-1 cells) of 5.89. Also, in assay [2], the EC50 turned out to be 10 nM and the Emax amounted to 63%.
As to `CN(C)Cc1cncc(-c2ccc3[nH]nc(-c4cc5c(-c6cccnc6)cccc5[nH]4)c3n2)c1` [Compound 97, N,N-Dimethyl-1-(5-(3-(4-(pyridin-3-yl)-1H-indol-2-yl)-1H-pyrazolo[4,3-b]pyridin-5-yl)pyridin-3-yl)methanamine], the pEC50 in assay [1] was 6.38; in the assay with IL-6 (THP-1 cells) it was 6.81. In addition, the Emax in assay [2] worked out at 36%.
`c1cc(-c2ccncc2)c2cc(-c3n[nH]c4ccc(-c5cncc(OCCN6CCCC6)c5)nc34)[nH]c2c1` [Compound 606, 3-(4-(Pyridin-4-yl)-1H-indol-2-yl)-5-(5-(2-(pyrrolidin-1-yl)ethoxy)pyridin-3-yl)-1H-pyrazolo[4,3-b]pyridine]: the pEC50 in assay [1] was 5.30. This compound also showed a pEC50 with IL-6 (THP-1 cells) of 7.57. Moreover, in assay [2], the EC50 turned out to be 900 nM and the Emax amounted to 74%.
With `FC1(F)CCN(Cc2cncc(-c3ccc4[nH]nc(-c5cc6ccccc6[nH]5)c4n3)c2)C1` [Compound 278, 5-(5-((3,3-Difluoropyrrolidin-1-yl)methyl)pyridin-3-yl)-3-(1H-indol-2-yl)-1H-pyrazolo[4,3-b]pyridine], the negative logarithm of the EC50 (pEC50) in assay [1] was 6.93. Also, the pEC50 in the assay with IL-6 (THP-1 cells) was 6.68. For the same compound, in assay [2], the EC50 is 2700 nM and the Emax worked out at 293%.
As to `CN1CCN(c2cccc3[nH]c(-c4n[nH]c5ccc(-c6cncc(NC(=O)c7ccccc7)c6)nc45)cc23)CC1` [Compound 235, N-(5-(3-(4-(4-Methylpiperazin-1-yl)-1H-indol-2-yl)-1H-pyrazolo[4,3-b]pyridin-5-yl)pyridin-3-yl)benzamide], the pEC50 in assay [1] was 5.39; in the assay on IL-6 (THP-1 cells), 6.13. Moreover, the Emax in assay [2] worked out at 19%.
`CCCCC(=O)Nc1cncc(-c2ccc3[nH]nc(-c4cc5c(N6CCCCC6)cccc5[nH]4)c3n2)c1` [Compound 187, N-(5-(3-(4-(Piperidin-1-yl)-1H-indol-2-yl)-1H-pyrazolo[4,3-b]pyridin-5-yl)pyridin-3-yl)pentanamide]: the pEC50 in assay [1] is 6.24; in the assay with IL-6 (THP-1 cells), 7.07. In addition, the EC50 in assay [2] was 100 nM. Further, in assay [2], the Emax came out at 69%.
`CN(C)CCNc1cc(F)cc(-c2cccc3[nH]c(-c4n[nH]c5ccc(-c6cncc(CN7CCCCC7)c6)nc45)cc23)c1` [Compound 463, N^1-(3-Fluoro-5-(2-(5-(5-(piperidin-1-ylmethyl)pyridin-3-yl)-1H-pyrazolo [4,3-b]pyridin-3-yl)-1H-indol-4-yl)phenyl)-N^2,N^2-dimethylethane-1,2-diamine]: the values for the pEC50 (in assay [1]; in the assay on IL-6 (THP-1 cells)) were 5.86 and 6.68, respectively. In addition, the Emax in assay [2] is 48%.
In turn, `CN(C)Cc1cncc(-c2ccc3[nH]nc(-c4cc5c(-c6ccc(F)cc6)cccc5[nH]4)c3n2)c1` [Compound 41, 1-(5-(3-(4-(4-Fluorophenyl)-1H-indol-2-yl)-1H-pyrazolo[4,3-b]pyridin-5-yl)pyridin-3-yl)-N,N-dimethylmethanamine] had a pEC50 in assay [1] of 6.44. In the assay with IL-6 (THP-1 cells), the pEC50 is 6.26. In assay [2], the EC50 was found to be 10 nM and the Emax came out at 93%.
Compound `CN(C)CCNc1cc(F)cc(-c2cccc3[nH]c(-c4n[nH]c5ccc(-c6cccnc6)nc45)cc23)c1` [Compound 452, N^1-(3-Fluoro-5-(2-(5-(pyridin-3-yl)-1H-pyrazolo[4,3-b]pyridin-3-yl)-1H-indol-4-yl)phenyl)-N^2,N^2-dimethylethane-1,2-diamine] gave a pEC50 in assay [1] of 6.62. This compound showed a pEC50 with IL-6 (THP-1 cells) of 7.17. Moreover, in assay [2], the EC50 was found to be 2700 nM and the Emax was 67%.
As to `CN(C)CCNc1cc(F)cc(-c2cccc3[nH]c(-c4n[nH]c5ccc(-c6ccccn6)nc45)cc23)c1` [Compound 476, N^1-(3-Fluoro-5-(2-(5-(pyridin-2-yl)-1H-pyrazolo[4,3-b]pyridin-3-yl)-1H-indol-4-yl)phenyl)-N^2,N^2-dimethylethane-1,2-diamine], the pEC50 was 5.34 in assay [1] and 6.56 with IL-6 (THP-1 cells). In assay [2], the Emax stood at 42%.
For `c1cncc(-c2ccc3[nH]nc(-c4cc5c(-c6cccnc6)cccc5[nH]4)c3n2)c1` [Compound 88, 5-(Pyridin-3-yl)-3-(4-(pyridin-3-yl)-1H-indol-2-yl)-1H-pyrazolo[4,3-b] pyridine], in assay [1], the pEC50 was 6.73. This compound had a pEC50 with IL-6 (THP-1 cells) of 7.51. Besides, in assay [2], the EC50 was determined as 900 nM and the Emax worked out at 386%.
Compound `CN(C)CCNc1cc(F)cc(-c2cccc3[nH]c(-c4n[nH]c5ccc(-c6cncnc6)nc45)cc23)c1` [Compound 475, N^1-(3-Fluoro-5-(2-(5-(pyrimidin-5-yl)-1H-pyrazolo[4,3-b]pyridin-3-yl)-1H-indol-4-yl)phenyl)-N^2,N^2-dimethylylethane-1,2-diamine] gave a negative-log EC50 (pEC50) in assay [1] of 6.30. The same compound showed a pEC50 with IL-6 (THP-1 cells) of 7.74. Also, in assay [2], the EC50 amounted to 10 nM and the Emax was found to be 181%.
`c1cc(N2CCCCC2)c2cc(-c3n[nH]c4ccc(-c5cncc(OC6CCNCC6)c5)nc34)[nH]c2c1` [Compound 636, 3-(4-(Piperidin-1-yl)-1H-indol-2-yl)-5-(5-(piperidin-4-yloxy)pyridin-3-yl)-1H-pyrazolo[4,3-b]pyridine]: the figures for the pEC50 (in assay [1]; in the assay on IL-6 (THP-1 cells)) were 5.62 and 5.70, respectively. In assay [2], the Emax was 34%.
As to `CN(C)c1cncc(-c2ccc3[nH]nc(-c4cc5c(-c6ccoc6)cccc5[nH]4)c3n2)c1` [Compound 315, 5-(3-(4-(Furan-3-yl)-1H-indol-2-yl)-1H-pyrazolo[4,3-b]pyridin-5-yl)-N,N-dimethylpyridin-3-amine], the pEC50 in assay [1] was 6.22; in the assay on IL-6 (THP-1 cells), 5.86. For the same compound, in assay [2], the EC50 is 2700 nM. In addition, the Emax in assay [2] was found to be 80%.
Take `Cc1ccncc1-c1ccc2[nH]nc(-c3cc4c(-c5ccncc5)cccc4[nH]3)c2n1` [Compound 117, 5-(4-Methylpyridin-3-yl)-3-(4-(pyridin-4-yl)-1H-indol-2-yl)-1H-pyrazolo [4,3-b]pyridine]: the pEC50 in assay [1] is 6.52. Besides, in the assay on IL-6 (THP-1 cells), the pEC50 is 7.68. For the same compound, in assay [2], the EC50 was 900 nM and the Emax is 703%.
As for `c1cc(-c2ccncc2)c2cc(-c3n[nH]c4ccc(-c5cncc(CN6CCCCC6)c5)nc34)[nH]c2c1` [Compound 127, 5-(5-(Piperidin-1-ylmethyl)pyridin-3-yl)-3-(4-(pyridin-4-yl)-1H-indol-2-yl)-1H-pyrazolo[4,3-b]pyridine], the pEC50 in assay [1] is 5.29; in the assay on IL-6 (THP-1 cells), 6.32. Also, the EC50 in assay [2] came to 2700 nM. Besides, in assay [2], the Emax stood at 151%.
For `O=C(CC1CCNCC1)Nc1cncc(-c2ccc3[nH]nc(-c4cc5c(-c6ccccn6)cccc5[nH]4)c3n2)c1` [Compound 621, 2-(Piperidin-4-yl)-N-(5-(3-(4-(pyridin-2-yl)-1H-indol-2-yl)-1H-pyrazolo[4,3-b]pyridin-5-yl)pyridin-3-yl)acetamide], the pEC50 is 5.80 in assay [1] and 7.28 with IL-6 (THP-1 cells). The Emax in assay [2] stood at 8%.
Regarding `c1ccc(-c2cccc3[nH]c(-c4n[nH]c5ccc(-c6cncnc6)nc45)cc23)nc1` [Compound 167, 3-(4-(Pyridin-2-yl)-1H-indol-2-yl)-5-(pyrimidin-5-yl)-1H-pyrazolo[4,3-b] pyridine], the pEC50 in assay [1] was 6.37; in the assay with IL-6 (THP-1 cells), less than 5.00. For the same compound, in the assay with IL-6 (THP-1 cells) (given where EC50 >10 μM, 10 μM, read-out: percent inhibition at 10 μM), the inhibition (usually the percentage by which the read-out fell short of the control) at 10 µM turned out to be 12.8%. Besides, the Emax in assay [2] was determined as 41%.

Source of the values: patent US10226453B2, “3-(1H-indol-2-yl)-1H-pyrazolo[4,3-B]pyridines and therapeutic uses thereof” (Samumed, LLC, priority 2015, dated 2019).
